How the values were obtained:
[1] = test system: OVCA cell lines (A2780S, A2780CP, A2008, C13); assay: CellTiter-96 MTS proliferation assay quantifying cisplatin-resistance after serial cisplatin treatment; format: cell-based; conditions: cells after serial in vitro cisplatin-treatment/expansion cycles vs cells prior to serial cisplatin treatment
Description: FIGS. 3(A)-(D) are a series of graphs showing BAD-protein phosphorylation is associated with platinum resistance. Cisplatin EC50 so results and percent expression of phosphorylated-BAD at serine-155 (P-BAD155), non-phosphorylated BAD (NP-BAD155), total BAD, and PP2C (PPM1A) in (A) A2780S; (B) A2780CP; (C) A2008; and (D) C13 ovarian cancer cell lines measured by MTS and immunofluorescence, respectively.
Cell lines were induced for platinum resistance. […] Both cisplatin-resistance and genome-wide expression changes were measured serially in each cell line at baseline and after 3 and 6 cisplatin-treatment/expansion cycles. Cisplatin-resistance was quantified using CellTiter-96 MTS proliferation assays (Thermo Fisher Scientific Inc., Waltham, Mass.) and analyzed genome-wide expression using Affymetrix Human U133 Plus 2.0 GeneChips (Affymetrix, Inc., Santa Clara, Calif.) as previously described (Boren, et al., MicroRNAs and their target messenger RNAs associated with ovarian cancer response to chemotherapy. Gynecol Oncol 2009; 113:249-255; Bild, et al., Oncogenic pathway signatures in human cancers as a guide to targeted therapies. Nature 2006; 439:353-357) (Gene Expression Omnibus (GEO) accession number GSE23553).

A2780S and A2780CP cells = assay: Percent apoptotic nuclei after cisplatin treatment of transfected cells; format: cell-based
Procedure: FIGS. 4(A)-(D) is a composite figure showing modulation of BAD-protein phosphorylation status influences cisplatin sensitivity. OVCA cell lines (A) A2780S and (B) A2780CP were transfected with Flag vectors expressing wild-type BAD (WT) or BAD harboring serine (S) to alanine point mutations in serine-112, -136, or -155(S112A, S136A, S155A). These S to A phosphorylation site mutations prevent phosphorylation of the BAD protein. Transfected cells were treated with vehicle or 1 μM (A2780S) or 10 μM (A2780CP) cisplatin for 48 hours and evaluated for the presence of apoptotic nuclei. (C) Western blot showing depletion of PP2C and PKA by siRNA. Controls included a non-targeting siRNA (NT). GAPDH was used as a loading control. (D) Percent apoptotic nuclei in A2780S cells in the presence of 1 μM cisplatin after siRNA depletion of PKA and PP2C. Error bars indicate standard error of the mean.
Morphologic assessment of condensed chromatin and fragmented DNA quantified percent apoptotic nuclei. Cells were fixed in 4% paraformaldehyde, and nuclei were stained with bis-benzimide trihydrochloride (0.5 μg/ml; Molecular Probes) and quantified using fluorescence microscopy (Marchion, et al., Synergistic interaction between histone deacetylase and topoisomerase II inhibitors is mediated through topoisomerase IIbeta. Clin Cancer Res 2005; 11:8467-8475).
Cells were transfected with siRNA drawn against different BAD pathway proteins. RNA duplexes for PP2C/PPM1A (s10909 from ABI), cAMP-dependent protein kinase (PKA; 6406 from Cell Signaling Technology, Inc., Danvers, Mass.), and vectors containing mutated BAD (pFlag-600) were transfected using the Nucleofector transfection kit, with non-targeting Silencer negative control #2 siRNA (Applied Biosystems, Inc., Foster City, Calif.), according to manufacturer's protocols (Amaxa GmbH, Koeln, Del.). The role of pBAD (serine-155) in cisplatin sensitivity was further evaluated in A2780S cells by depletion of PKA and PP2C/PPM1A using siRNA.

N.N.[Cl][Pt][Cl] [cisplatin, cis-diammine-dichloroplatinum]
cisplatin EC50 [1]: higher cisplatin EC50 values
cisplatin-induced apoptosis (A2780S and A2780CP cells; A2780S and A2780CP transfected with BAD[S136A], BAD[S155A] vs wild-type BAD, 1 μM (A2780S) or 10 μM (A2780CP) cisplatin, 48 hours): increased cisplatin-induced apoptosis
cisplatin-induced apoptosis (A2780S and A2780CP cells; A2780S, siRNA depletion of PKA vs non-targeting control siRNA, 1 μM cisplatin): increased cisplatin-induced apoptosis
cisplatin-induced apoptosis (A2780S and A2780CP cells; A2780S, siRNA depletion of PP2C/PPM1A, 1 μM cisplatin): decreased cisplatin-induced apoptosis
cisplatin sensitivity (A2780S and A2780CP cells; cells transfected with BAD[S112A], 1 μM (A2780S) or 10 μM (A2780CP) cisplatin, 48 hours): no effect on cisplatin sensitivity
